Experimental data published in patent publication US20020137929A1, “1 - (3-heterocyclylphenyl) isothiourea, -isourea, -guanidine and -amidine herbicidal agents” (Intellectual Property Department, BASF Aktiengesellschaft, priority 1998, published 2002).

Experiments:
[1] = test system: ECHORC (Watergrass (Calif.)); assay: Postemergence weed control under flooded paddy conditions; format: in vivo, Echinochloa oryzoides; conditions: postemergence weeds, 3-4 weeks after treatment
Procedure, shortened: (§1)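 Weeds 3 to 5 cm tall and rice seedlings at the 1.5 to 2.5 leaf stage were flooded, with water held 1.5 to 3 cm above the soil. Compounds in 50/50 v/v aqueous/acetone went into the flood water at about 0.0313 to 0.500 kg/ha. Visual 0-9 ratings versus control were made 3 to 4 weeks later.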

[2] = test system: CYPIR (Rice Flatsedge); assay: Preemergence weed control under flooded paddy conditions; format: in vivo, Cyperus iria; conditions: rated 3-4 weeks after treatment
Procedure, shortened: (§2)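 Silt loam, seeds in top 0.5 cm; flood held 1.5-3 cm; test cpd as acetone/water 50/50 into flood water, ~0.0313-0.500 kg/ha a.i.; greenhouse 3-4 wk; visual 0-9 score vs control.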

[3] = test system: ECHORC (Watergrass (Calif.)); assay: as above; format: in vivo, Echinochloa oryzoides; conditions: rated 3-4 weeks after treatment
Procedure, shortened: as §2

[4] = test system: CHEAL (Lambsquarters, Common); assay: Preemergence herbicidal evaluation; format: in vivo, Chenopodium album; conditions: rated 4-5 weeks after treatment
Procedure, shortened: (§3)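 Preemergence soil application of compound, sprayed in aqueous acetone at rates equivalent to about 0.0156 to 0.500 kg per hectare onto freshly sown cups. Plant response was judged by eye on a 0-9 scale four to five weeks later.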

[5] = test system: ZEAMX (Corn, Field); assay: Preemergence herbicidal evaluation; format: in vivo, Zea mays; conditions: rated 4-5 weeks after treatment
Procedure, shortened: as §3

[6] = test system: TRZAWR (Wheat, Winter, cv Riband); assay: Preemergence herbicidal evaluation; format: in vivo, Triticum aestivum; conditions: rated 4-5 weeks after treatment
Procedure, shortened: as §3

[7] = test system: CASOB (Sicklepod); assay: Postemergence herbicidal evaluation; format: in vivo, Cassia obtusifolia
Procedure, shortened: (§4)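 Two-week-old seedlings sprayed with compound in 50/50 acetone/water plus 0.5% TWEEN 20, at about 0.0156 to 0.500 kg/ha, nozzle at 40 psi. Kept in greenhouse; rated visually 4-5 weeks after treatment on a 0-9 scale versus control, repeat tests averaged.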

[8] = test system: ZEAMX (Corn, Field); assay: Postemergence herbicidal evaluation; format: in vivo, Zea mays
Procedure, shortened: as §4

[9] = test system: GALAP (Galium); assay: Postemergence herbicidal evaluation; format: in vivo, Galium aparine
Procedure, shortened: as §4

[10] = test system: CYPSE (Flatsedge); assay: Postemergence weed control under flooded paddy conditions; format: in vivo, Cyperus serotinus; conditions: postemergence weeds, 3-4 weeks after treatment
Procedure, shortened: as §1

[11] = test system: CYPSE (Flatsedge); assay: Preemergence weed control under flooded paddy conditions; format: in vivo, Cyperus serotinus; conditions: rated 3-4 weeks after treatment
Procedure, shortened: as §2

[12] = test system: ORYSAT (Rice, Tebonnet); assay: Preemergence herbicidal evaluation; format: in vivo, Oryza sativa, (L.) Tebonnet; conditions: rated 4-5 weeks after treatment
Procedure, shortened: as §3

[13] = test system: IPOHE (Morningglory, Ivyleaf); assay: Preemergence herbicidal evaluation; format: in vivo, Ipomoea hederacea; conditions: rated 4-5 weeks after treatment
Procedure, shortened: as §3

[14] = test system: AMBEL (Ragweed, Common); assay: Preemergence herbicidal evaluation; format: in vivo, Ambrosia artemisifolia; conditions: rated 4-5 weeks after treatment
Procedure, shortened: as §3

## CCOC(=O)CN1C(=O)C(Cc2ccccc2OC(C)C(=O)OC)SC1=Nc1cc(-n2c(=O)cc(C(F)(F)F)n(C)c2=O)c(F)cc1Cl (centres unmarked) [Compound 50, 2-{{2-Chloro-5-[3,6-dihydro-3-methyl-2,6-dioxo-4-(trifluoromethyl)-1(2H)-pyrimidinyl]-4-fluoro-phenyl}imino}-5-(o-hydroxybenzyl)-4-oxo-3-thiazolidineacetic acid, ethyl ester, ester with methyl lactate]
[1]; rate 0.0313 kg/ha
  Herbicidal rating ECHORC: 4.0
[1]; rate 0.0625 kg/ha
  Herbicidal rating ECHORC: 7.0
[1]; rate 0.1250 kg/ha
  Herbicidal rating ECHORC: 7.0
[1]; rate 0.2500 kg/ha
  Herbicidal rating ECHORC: 7.0
[2]; 0.0313 kg/ha
  Herbicidal rating CYPIR: 0.0
[2]; 0.0625 kg/ha
  Herbicidal rating CYPIR: 0.0
[2]; 0.1250 kg/ha
  Herbicidal rating CYPIR: 0.0
[2]; 0.2500 kg/ha
  Herbicidal rating CYPIR: 0.0
[3]; 0.0313 kg/ha
  Herbicidal rating ECHORC: 4.0
[3]; 0.0625 kg/ha
  Herbicidal rating ECHORC: 7.0
[3]; 0.1250 kg/ha
  Herbicidal rating ECHORC: 7.0
[3]; 0.2500 kg/ha
  Herbicidal rating ECHORC: 7.0
[4]; rate 0.0625 kg/ha
  Preemergence herbicidal rating CHEAL: 0.0
[4]; rate 0.1250 kg/ha
  Preemergence herbicidal rating CHEAL: 9.0
[4]; rate 0.2500 kg/ha
  Preemergence herbicidal rating CHEAL: 9.0
[5]; rate 0.0625 kg/ha
  Preemergence herbicidal rating ZEAMX: 0.0
[5]; rate 0.1250 kg/ha
  Preemergence herbicidal rating ZEAMX: 0.0
[5]; rate 0.2500 kg/ha
  Preemergence herbicidal rating ZEAMX: 0.0
[6]; rate 0.0625 kg/ha
  Preemergence herbicidal rating TRZAWR: 0.0
[6]; rate 0.1250 kg/ha
  Preemergence herbicidal rating TRZAWR: 0.0
[6]; rate 0.2500 kg/ha
  Preemergence herbicidal rating TRZAWR: 0.0
[7]; Rate 0.0156 kg/ha
  Postemergence herbicidal rating CASOB: 0.0
[7]; Rate 0.0313 kg/ha
  Postemergence herbicidal rating CASOB: 1.0
[7]; Rate 0.0625 kg/ha
  Postemergence herbicidal rating CASOB: 2.0
[8]; Rate 0.0156 kg/ha
  Postemergence herbicidal rating ZEAMX: 5.0
[8]; Rate 0.0313 kg/ha
  Postemergence herbicidal rating ZEAMX: 5.0
[8]; Rate 0.0625 kg/ha
  Postemergence herbicidal rating ZEAMX: 5.5
[9]; Rate 0.0156 kg/ha
  Postemergence herbicidal rating GALAP: 0.0
[9]; Rate 0.0313 kg/ha
  Postemergence herbicidal rating GALAP: 2.0
[9]; Rate 0.0625 kg/ha
  Postemergence herbicidal rating GALAP: 4.0
[10]; rate 0.0313 kg/ha
  Herbicidal rating CYPSE: 0.0
[10]; rate 0.0625 kg/ha
  Herbicidal rating CYPSE: 0.0
[10]; rate 0.1250 kg/ha
  Herbicidal rating CYPSE: 0.0
[10]; rate 0.2500 kg/ha
  Herbicidal rating CYPSE: 0.0
[11]; 0.0313 kg/ha
  Herbicidal rating CYPSE: 0.0
[11]; 0.0625 kg/ha
  Herbicidal rating CYPSE: 0.0
[11]; 0.1250 kg/ha
  Herbicidal rating CYPSE: 0.0
[11]; 0.2500 kg/ha
  Herbicidal rating CYPSE: 0.0
[12]; rate 0.0625 kg/ha
  Preemergence herbicidal rating ORYSAT: 0.0
[12]; rate 0.1250 kg/ha
  Preemergence herbicidal rating ORYSAT: 0.0
[12]; rate 0.2500 kg/ha
  Preemergence herbicidal rating ORYSAT: 0.0
[13]; rate 0.0625 kg/ha
  Preemergence herbicidal rating IPOHE: 0.0
[13]; rate 0.1250 kg/ha
  Preemergence herbicidal rating IPOHE: 0.0
[13]; rate 0.2500 kg/ha
  Preemergence herbicidal rating IPOHE: 0.0
[14]; rate 0.0625 kg/ha
  Preemergence herbicidal rating AMBEL: 0.0
[14]; rate 0.1250 kg/ha
  Preemergence herbicidal rating AMBEL: 0.0
[14]; rate 0.2500 kg/ha
  Preemergence herbicidal rating AMBEL: 0.0
